Measured values from patent publication US20210177814A1, “USE OF GUANABENZ OR DERIVATES THEREOF FOR THE TREATMENT OF TYPE I IFN-DEPENDENT PATHOLOGIES” (INSERM (Institut National de la Santé et de la Recherche …, priority 2018, published 2021).

Columns and labels:
[1] = system: RIG-I like receptor (RLR) dsRNA sensing pathway; test: IRF3 activation and IFN-β expression in MEFs lipofected with poly(I:C); format: cell-based, mouse; conditions: WT and Gadd34-deficient
Protocol: FIG. 2: Interferon β (IFNb) production in response to cytosolic dsRNA (Poly I:C) in WT and Gadd34-deficient embryonic fibroblasts (MEFs) treated with Guanabenz.
(A) IFNb expression in response to lipofected dsRNA (poly I:C) was measured by qPCR (mRNA) or (B) by ELISA (secreted protein) after treatment with Guanabenz (GBZ). (C) Activation of the transcription IRF3 by phosphorylation that drives IFN-β mRNA expression was monitored by western blot in WT and Gadd34-deficient animals (ΔC/ΔC, KO or −/−) in response to lipofected poly I:C in presence of GBZ. (D) eIF2α A/A mutants MEFs (unable to phosphorylate eIF2α on Serine 52, that is targeted by GADD34 and to inhibit protein synthesis) were also tested for IFN-β production and IRF3 activation.

[2] = system: endosomal TLRs; test: TMPD (pristane) + CpG ODN induced SLE model; format: in vivo, mouse
Protocol: At day 7 mice were injected with CpG ODN 1585 (50 μg/20 g). Blood was collected once a month to dose the circulating autoantibodies level. Mice were sacrificed at week 24 after disease induction. (A) Flow cytometry analysis of peritoneum exudate cells populations (PEC) at day 14. […] Statistical significance was assigned using two tailed Student's t test (* p<0.05). (C) Level of circulating anti-RNA antibodies (normalized to control mice), anti-nuclear antibodies (arbitrary units), presence of lipogranulomas in the peritoneal cavity (arbitrary score) and glomerulopathy (histological score blindly determined by an anatomopathologist) at week 24. Statistical significance was assigned by a one-way ANOVA, followed by Tukey range test (* p<0.05;** p<0.005; ***p<0.0005.). N.S., not significant. n values in the figure indicate the number of mice.
Wild type female mice C57BL/6 of 6 weeks of age were injected i.p. with 500 μL of TMPD (Sigma Aldrich) or PBS. From day 1 to day 13 mice were injected i.p. every 2 days with GBZ or PBS/DMSO 2 mg/kg. Mice were injected i.p. at day 7 with ODN 1585 or PBS 50 μg/20 g of mouse. Mice were sacrificed at day 14 or after 6 months. At day 14, peritoneal exudate cells (PEC) were taken for flow cytometry analysis. After 6 months kidneys were taken for immunohistochemistry. During 6 months, blood serum collection was effectuated once a month, from month 2 after the injection of TMPD up to one week before the animal sacrifice. Serum was used to evaluate the concentration of circulating autoantibodies. Anti-RNA ELISA. Evaluation of autoantibodies against RNA was performed by coating ELISA plates with 50 μl/well of 5 μg/ml mouse RNA or DNA in PBS and incubated overnight at 4° C. Next day, the plates were incubated with 1:50 or 1:100 diluted serum samples in working solution (PBS+0.05% Tween20+1% BSA), and the assay was developed with HRP-labeled goat anti-mouse IgG (Southern Biotech).
Mouse kidney and liver were fixed in 10% buffered formalin for 24 h, then the tissues were dehydrated and embedded in paraffin. Tissue sections of 3.5 μm were cut using the microtom Leica RM2245. Hematoxylin-eosin staining was effectuated automatically with Leica autostainer XL. Finally, the slides were mounted with entellan and kept at room temperature. Biopsies were analyzed by an anatomopathologist and the clinical score was assigned in a blinded way. Pictures were taken with Nikon Eclipse.

[3] = 22 weeks after TMPD injection, vs TMPD and CpG only

## NC(N)=N/N=C/c1c(Cl)cccc1Cl [GBZ, 2-(2,6-dichlorobenzylidene)-hydrazinecarboximidamide]
[1]
  IFN-β expression (mRNA by qPCR, secreted protein by ELISA): inhibited
  activation of IRF3 (phosphorylation, western blot): inhibited
[1]; listed as Guanabenz
  IFN-β expression (mRNA by qPCR, secreted protein by ELISA): inhibit
  activation of IRF3 (phosphorylation, western blot): inhibit
[2]; [3]
  circulating anti-RNA immunoglobulins titer: substantially lower
  circulating anti-nuclear immunoglobulins titer: substantially lower
[2]; C57BL/6, control vs GBZ-treated animals
  Ig-complexes deposits in the kidneys (glomerulonephritis): unable to induce overall sufficient glomerulonephritis to observe significant differences
[2]; GBZ-treated vs TMPD and CpG only
  lipogranulomas in the peritoneal cavity: considerably smaller numbers
[2]; TMPD+CpG injected mice, recurrent GBZ injections
  transcriptional up-regulation of TNF-α, ISG 15 and CH25H in PECs (qPCR): strongly inhibited
[2]; day 14, GBZ 2 mg/kg i.p. every 2 days, day 1 to 13
  immune cells migration into or from the peritoneal cavity (PEC flow cytometry): did not prevent
